Columns and labels:
MCF-7 (breast cancer) = experiment: MTT cell viability assay, MCF-7; type: cell-based, human; details: for IC50: MTT, 72 h; for Selectivity Index MCF-7/HaCaT: MCF-7 versus HaCaT, from IC50 values
From the text: (§1) The cytotoxic activity of the compounds 8–33 has been evaluated in MTT assays against three human cancer cell lines MCF-7 (breast cancer), HeLa (cervical cancer), and HCT-116 (colon cancer) and it was expressed as IC50 values in μM (Table 1).
(§2) All chemicals, if not stated otherwise, were obtained from Sigma-Aldrich (St. Louis, MO, USA). The MCF-7 cell line was purchased from Cell Lines Services (Eppelheim, Germany), the HeLa and HCT-116 cell lines were obtained from the Department of Microbiology, Tumor and Cell Biology, Karolinska Institute (Stockholm, Sweden). Cells were cultured in Dulbecco’s modified Eagle’s medium (DMEM) supplemented with 10% fetal bovine serum, 2 mM glutamine, 100 units/mL penicillin, and 100 μg/mL streptomycin. Cultures were maintained in a humidified atmosphere with 5% CO2 at 37 °C in an incubator (HeraCell, Heraeus, Langenselbold, Germany).
(§3) Cell viability was determined using the MTT (3-(4,5-dimethylthiazol-2-yl)-2,5-diphenyl-tetrazoliumbromide) assay. Stock solutions of the studied compounds were prepared in 100% DMSO. […] Cells were seeded in 96-well plates at a density of 5 × 10^3 cells/well and treated for 72 h with the examined compounds in the concentration range 1–100 μM (1, 10, 25, 50, and 100 μM). Following treatment, MTT (0.5 mg/mL) was added to the medium and cells were further incubated for 2 h at 37 °C. Cells were lysed with DMSO and the absorbance of the formazan solution was measured at 550 nm with a plate reader (1420 multilabel counter, Victor, Jügesheim, Germany). […] The experiment was performed in triplicate. Values are expressed as the mean ± SD of at least three independent experiments.

HaCaT cells = experiment: MTT assay with non-cancerous HaCaT cell line; type: cell-based; details: 72 h
Procedure: The important feature of new cytotoxic agents is their selective activity against cancer cells with a weak impact on the physiology of healthy cells. Determination of the selectivity of compounds 14–19 and 24–29 was done by MTT assay with the non-cancerous HaCaT cell line (Table 2). […] A similar effect was observed also for compound 26. […] Due to the excellent selectivity of compound 30 towards HCT-116 cells and at the same time high cytotoxicity towards this cell line (IC50 = 8 μM); derivative 30 may be a good hit compound for the search for chemotherapeutic agents for the treatment of colon cancer.
as §3

HeLa (cervical cancer) = experiment: MTT cell viability assay, HeLa; type: cell-based, human; details: for IC50: Homo sapiens, HeLa, MTT, 72 h; for Selectivity Index HeLa/HaCaT: HeLa versus HaCaT, from IC50 values
Procedure: as §2, §3

HCT-116 (colon cancer) = experiment: MTT cell viability assay, HCT-116; type: cell-based, human; details: for IC50: Homo sapiens, HCT-116, MTT, 72 h; for Selectivity Index HCT-116/HaCaT: HCT-116 versus HaCaT, from IC50 values
Procedure: as §2, §3

[1] = test system: MCF-7, HeLa and HCT-116 cells; experiment: MTT assay, mean over three tested cancer cell lines; type: cell-based, human
Procedure: as §1
Although the highest activity of the compounds with hydroxyl groups as the R^2 residue was against colon cancer cells, the inhibition of the growth of breast cancer cells was also remarkable.
as §3

Row | Structure (SMILES) | IC50 (MCF-7 (breast cancer)) [µM] | IC50 (HaCaT cells) [µM] | IC50 (MCF-7 (breast cancer); Homo sapiens, MCF7) [µM] | IC50 (HeLa (cervical cancer)) [µM] | IC50 (HCT-116 (colon cancer)) [µM] | Selectivity Index MCF-7/HaCaT (MCF-7 (breast cancer)) | Selectivity Index HeLa/HaCaT (HeLa (cervical cancer)) | Selectivity Index HCT-116/HaCaT (HCT-116 (colon cancer)) | IC50 (HaCaT cells; Homo sapiens, HaCaT) [µM] | melting point [°C] | selectivity ratio, mean IC50 against cancer cells versus IC50 for HaCaT ([1]; HaCaT versus mean of three cancer cell lines) | IC50 ([1]; Homo sapiens, mean of MCF-7, HeLa, HCT-116, MTT, 72 h, read-out: mean IC50 against three tested cell lines) [µM]
1 | N.N.[Cl][Pt][Cl] [Cisplatin, reference compound] | 3 ± 0.1 | 7.7 ± 0.2 | – | – | – | – | – | – | – | – | – | –
2 | Cc1cc(S(=O)(=O)NC(N)=NN=C(C=Cc2ccccc2)c2ccccc2)c(SCc2ccccc2)cc1Cl [Compound 8] | – | – | 130 ± 8 | 120 ± 8 | 167 ± 7 | – | – | – | – | – | – | –
3 | Cc1cc(S(=O)(=O)NC(N)=NN=C(C=Cc2ccccc2O)c2ccccc2)c(SCc2ccccc2)cc1Cl [Compound 9] | – | – | 18 ± 1 | 17 ± 1 | 11 ± 0.5 | 1.9 | 2.1 | 3.2 | 35 ± 1 | – | – | –
4 | Cc1cc(S(=O)(=O)NC(N)=NN=C(C=Cc2ccc(O)cc2)c2ccccc2)c(SCc2ccccc2)cc1Cl [Compound 10] | – | – | 15 ± 1 | 15 ± 1 | 9 ± 0.1 | 2.1 | 2.1 | 3.4 | 31 ± 1 | – | – | –
5 | COc1ccc(C=CC(=NN=C(N)NS(=O)(=O)c2cc(C)c(Cl)cc2SCc2ccccc2)c2ccccc2)cc1 [Compound 11] | – | – | 330 ± 17 | – | 300 ± 21 | – | – | – | – | – | – | –
6 | Cc1cc(S(=O)(=O)NC(N)=NN=C(C=Cc2ccc(Cl)cc2)c2ccccc2)c(SCc2ccccc2)cc1Cl [Compound 12] | – | – | 210 ± 13 | 190 ± 10 | 113 ± 6 | – | – | – | – | – | – | –
7 | Cc1cc(S(=O)(=O)NC(N)=NN=C(C=Cc2ccc([N+](=O)[O-])cc2)c2ccccc2)c(SCc2ccccc2)cc1Cl [Compound 13] | – | – | 370 ± 20 | 340 ± 31 | 320 ± 10 | – | – | – | – | – | – | –
8 | Cc1cc(S(=O)(=O)NC(N)=NN=C(C=Cc2ccccc2O)c2ccccc2)c(SCc2ccccc2C)cc1Cl [Compound 14] | – | – | 13 ± 0.6 | 18 ± 1 | 9 ± 0.1 | 2.4 | 1.7 | 3.4 | 31 ± 2 | – | – | –
9 | Cc1cc(S(=O)(=O)NC(N)=NN=C(C=Cc2ccc(O)cc2)c2ccccc2)c(SCc2ccccc2C)cc1Cl [Compound 15] | – | – | 13 ± 0.4 | 18 ± 0.5 | 10 ± 0.6 | 2.5 | 1.8 | 3.3 | 33 ± 2 | 220 to 225 | – | –
10 | Cc1cccc(CSc2cc(Cl)c(C)cc2S(=O)(=O)NC(N)=NN=C(C=Cc2ccccc2O)c2ccccc2)c1 [Compound 16] | – | – | 20 ± 0.5 | 36 ± 2 | 17 ± 0.1 | 2.0 | ns | 2.4 | 41 ± 2 | – | – | –
11 | Cc1cccc(CSc2cc(Cl)c(C)cc2S(=O)(=O)NC(N)=NN=C(C=Cc2ccc(O)cc2)c2ccccc2)c1 [Compound 17] | – | – | 17 ± 1 | 21 ± 1 | 12 ± 0.6 | 2.1 | 1.7 | 2.9 | 35 ± 2 | – | – | –
12 | Cc1ccc(CSc2cc(Cl)c(C)cc2S(=O)(=O)NC(=N)N/N=C(/C=C/c2ccccc2)c2ccccc2)cc1 [Compound 18] | – | – | 260 ± 15 | 200 ± 10 | 160 ± 5 | – | – | – | – | – | – | –
13 | Cc1ccc(CSc2cc(Cl)c(C)cc2S(=O)(=O)NC(N)=NN=C(C=Cc2ccccc2O)c2ccccc2)cc1 [Compound 19] | – | – | 14 ± 1 | 23 ± 1 | 11 ± 0.2 | 1.9 | 1.6 | 3.3 | 36 ± 2 | 120 to 125 | – | –
14 | Cc1ccc(CSc2cc(Cl)c(C)cc2S(=O)(=O)NC(N)=NN=C(C=Cc2ccc(O)cc2)c2ccccc2)cc1 [Compound 20, 3-{4-Chloro-2-[(4-methylphenyl)methylthio]-5-methylbenzenesulfonyl}-2-[3-(4-hydroxyphenyl)-1-phenylprop-2-enylideneamino]guanidine] | – | – | 15 ± 1 | 15 ± 1 | 8.5 ± 0.2 | 2.1 | 2.1 | 3.6 | 31 ± 1 | – | 2.42 | 12.8
15 | COc1ccc(C=CC(=NN=C(N)NS(=O)(=O)c2cc(C)c(Cl)cc2SCc2ccc(C)cc2)c2ccccc2)cc1 [Compound 21] | – | – | 150 ± 10 | 250 ± 12 | 235 ± 5 | – | – | – | – | – | – | –
16 | Cc1ccc(CSc2cc(Cl)c(C)cc2S(=O)(=O)NC(N)=NN=C(C=Cc2ccc(Cl)cc2)c2ccccc2)cc1 [Compound 22] | – | – | 193 ± 10 | 705 ± 35 | 183 ± 13 | – | – | – | – | 172 to 177 | – | –
17 | Cc1ccc(CSc2cc(Cl)c(C)cc2S(=O)(=O)NC(N)=NN=C(C=Cc2ccc([N+](=O)[O-])cc2)c2ccccc2)cc1 [Compound 23] | – | – | 280 ± 17 | 170 ± 10 | – | – | – | – | – | – | – | –
18 | Cc1cc(S(=O)(=O)NC(N)=NN=C(C=Cc2ccc(O)cc2)c2ccccc2)c(SCc2ccccc2Cl)cc1Cl [Compound 25] | – | – | 19 ± 1 | 18 ± 0.5 | 15 ± 0.6 | 2.2 | 2.3 | 2.7 | 41 ± 2 | – | – | –
19 | Cc1cc(S(=O)(=O)NC(N)=NN=C(C=Cc2ccccc2O)c2ccccc2)c(SCc2cccc(Cl)c2)cc1Cl [Compound 26] | – | – | 13 ± 0.6 | 19 ± 0.5 | 10 ± 0.4 | 2.9 | 2.0 | 3.8 | 38 ± 2 | – | – | –
20 | Cc1cc(S(=O)(=O)NC(N)=NN=C(C=Cc2ccc(O)cc2)c2ccccc2)c(SCc2cccc(Cl)c2)cc1Cl [Compound 27] | – | – | 16 ± 1 | 20 ± 0.5 | 12 ± 0.1 | 2.3 | 1.8 | 3.1 | 37 ± 2 | – | – | –
21 | Cc1cc(S(=O)(=O)NC(N)=NN=C(C=Cc2ccccc2)c2ccccc2)c(SCc2ccc(Cl)cc2)cc1Cl [Compound 28] | – | – | 230 ± 12 | 20 ± 1 | 220 ± 11 | – | – | – | 99 ± 3 | – | – | –
22 | Cc1cc(S(=O)(=O)NC(N)=NN=C(C=Cc2ccccc2O)c2ccccc2)c(SCc2ccc(Cl)cc2)cc1Cl [Compound 29] | – | – | 19 ± 1 | 41 ± 2 | 18 ± 0.4 | 2.4 | ns | 2.5 | 45 ± 3 | – | – | –
23 | Cc1cc(S(=O)(=O)NC(N)=NN=C(C=Cc2ccc(O)cc2)c2ccccc2)c(SCc2ccc(Cl)cc2)cc1Cl [Compound 30, 3-{4-chloro-2-[(4-chlorophenyl)methylthio]-5-methylbenzenesulfonyl}-2-[3-(4-hydroxyphenyl)-1-phenylprop-2-enylideneamino]guanidine] | – | – | 18 ± 1 | 37 ± 1 | 8 ± 0.2 | 4.7 | 2.3 | 10.6 | 85 ± 2 | – | – | –
24 | Cc1cc(S(=O)(=O)NC(N)=NN=C(C=Cc2ccc([N+](=O)[O-])cc2)c2ccccc2)c(SCc2ccc(Cl)cc2)cc1Cl [Compound 33] | – | – | 220 ± 12 | 110 ± 3 | 450 ± 27 | – | – | – | – | – | – | –

Reference: publication PMC10002375, “Synthesis of 3-(2-Alkylthio-4-chloro-5-methylbenzenesulfonyl)-2-(1-phenyl-3-arylprop-2-enylideneamino)guanidine Derivatives with Pro-Apoptotic Activity against Cancer Cells” (International Journal of Molecular Sciences, 2023)
